Assays:
[1] = test system: rats; experiment: Loss of tail withdrawal reflex (LOTWR) in rats, single intravenous injection, dose escalation: potent analgesic effect and severe adverse reactions; assay type: in vivo, SD rats; conditions: Rattus norvegicus, single intravenous injection (tail vein), LOTWR lasting for 30 seconds as criterion, class symbol, read-out: The minimum effective dose
Protocol: (§1) Using the loss of tail withdrawal reflex (LOTWR) in rats as an indicator, the potent analgesic effect of the compounds according to the present invention was evaluated.
(§2) 1.1 Experimental animals: Adult male SD rats weighing between 220-300 g were selected for the experiment. The rats were housed in sawdust-bedded cages with a temperature of 25±1°C, humidity ranging from 40% to 60%, and a 12-hour light/12-hour dark cycle. Each cage contained no more than 5 rats, with free access to water and food.
(§3) • (1) The compound of the present invention, along with the positive control drug remifentanil and the negative control (vehicle), were administered in fixed volumes. A dose escalation approach was employed to determine the minimum effective dose at which the compound of the present invention produces potent analgesic effects, as well as the minimum dose at which severe adverse reactions first appear. • (2) LOTWR lasting for 30 seconds was used as the criterion for generating potent analgesic effects. During the experiment, drugs were administered via the tail vein of rats, with a dosage volume of 0.6 mL per rat and a dosage rate of 0.02 mL/s. Subsequently, an alligator clip was applied at a distance of 1 cm from the base of the rat's tail, clamping once longitudinally and once transversely before being left in place. Meanwhile, the distal end of the alligator clip was continuously oscillated (30 times/min) to continuously generate stimulation. […] When all results were "no LOTWR" after 10 minutes of testing (5 trials), the test was stopped and recorded as "ineffective." • (3) All compounds would undergo a dose escalation for efficacy evaluation, starting from 1 mg/kg (due to the high potency of remifentanil, the lowest dose was set at 1 µg/kg), followed by 5 mg/kg, 10 mg/kg, 20 mg/kg, and so on (increasing by 20 mg/kg increments after 20 mg/kg). The dose escalation would be stopped when rats show signs of death, and the lowest effective dose and the lowest dose at which severe adverse reactions occur would be recorded throughout the process. In this study, severe adverse reactions are defined as apnea, generalized tonic rigidity, convulsions, opisthotonus, seizures, etc.
(§4) 1.3 Evaluation indicators: the minimum effective dose; the minimum dose resulting in serious adverse reactions; the safety therapeutic index = "the minimum dose resulting in serious adverse reactions" / "the minimum effective dose".

[2] = as above; assay type: in vivo, SD rats; conditions: rat, in vivo, single intravenous injection, minimum dose resulting in serious adverse reactions / minimum effective dose, class symbol, read-out: The safety therapeutic index
Protocol: as §1, §2, §3, §4

`Cc1ccc(NC(=S)NCc2cccs2)c(N(C)C)c1` [Example 122] showed a minimal effective dose [1] of at most 10 mg/kg and a selectivity ratio [2] of over 4.
